Source: patent publication US10233209B2, “Inhibitors of the farnesoid x receptor and uses in medicine” (The United States of America, as represented by the …, priority 2013, dated 2019)

What was measured:
Format in all cases: in vivo, mouse
[1] = system: high-fat diet-treated Fxr^fl/fl and Fxr^ΔIE mice; assay: body mass gain of tempol-treated mice on a high-fat diet; conditions: high-fat diet 10 weeks
Text: High-fat diet (HFD) (60% kcal consisting of fat) was purchased from Bioserv. […] Fxr^fl/fl and Fxr^ΔIE (Kim et al., J. Lipid Res. 48:2664-2672, 2007) mice were backcrossed with C57BL/6N mice for over 10 generations. For the antibiotic (the combination of bacitracin, neomycin, and streptomycin) study, male C57BL/6N mice from 6 weeks of age were fed a high-fat diet (“HFD) and administered 0.1% (w/v) of each compound (the combination of bacitracin, neomycin, and streptomycin) in the drinking water. […] For TβMCA in vivo, male C57BL/6N mice from 6 weeks of age were fed a HFD and treated with the antibiotics (0.1% of each compound of bacitracin, neomycin, and streptomycin combination) for 3 days. Vehicle (saline), TCA (400 mg/kg body weight, dissolved in saline) or a combination of TCA and TβMCA (400 mg/kg body weight of each compound, dissolved in saline) were orally administered to the mice and followed by a second dose 12 h later. The mice were killed 2 h later for tissue collection. For the Gly-MCA study, Gly-MCA was custom synthesized. […] Cumulative food intake and TEEbal were measured for 1 week in vehicle and Gly-MCA-treated mice from 6 to 7 weeks of HFD. TEEbal was measured as previously described (Ravussin et al., Int. J. Obesity 37:399-403, 2013). […]

[2] = system: bile salt hydrolase (BSH); assay: fecal bile salt hydrolase activity; conditions: tempol vs vehicle
Protocol: Fecal proteins were prepared from feces samples (0.5 g) in pH 7.4 phosphate buffered saline (PBS, 5.0 mL) using sonication. […] Briefly, incubation was carried out in 3 mM sodium acetate buffer, pH 5.2, containing 0.1 mg/ml fecal protein and 50 μM TCDCA-d5 in a final volume of 200 μL. After a 20 min incubation at 37° C., the reaction was stopped by plunging the samples into dry ice. 100 μL of acetonitrile was directly added to the reaction mix. After centrifuging at 14,000×g for 20 min, 5 μL of the supernatant was transferred to an auto sampler vial subjected to analysis by a UPLC system coupled with a XEVO triple quadrupole tandem mass spectrometer (Waters Corp., Milford, Mass.).

HFD-induced NAFLD model = assay: HFD-induced NAFLD model: liver histology, liver weight, triglycerides (tempol, antibiotic)
Text: High-fat diet (HFD) (60% kcal consisting of fat) was purchased from Bioserv. […] Fxr^fl/fl and Fxr^ΔIE (Kim et al., J. Lipid Res. 48:2664-2672, 2007) mice were backcrossed with C57BL/6N mice for over 10 generations. For the antibiotic (the combination of bacitracin, neomycin, and streptomycin) study, male C57BL/6N mice from 6 weeks of age were fed a high-fat diet (“HFD) and administered 0.1% (w/v) of each compound (the combination of bacitracin, neomycin, and streptomycin) in the drinking water. […] For TβMCA in vivo, male C57BL/6N mice from 6 weeks of age were fed a HFD and treated with the antibiotics (0.1% of each compound of bacitracin, neomycin, and streptomycin combination) for 3 days. Vehicle (saline), TCA (400 mg/kg body weight, dissolved in saline) or a combination of TCA and TβMCA (400 mg/kg body weight of each compound, dissolved in saline) were orally administered to the mice and followed by a second dose 12 h later. The mice were killed 2 h later for tissue collection. For the Gly-MCA study, Gly-MCA was custom synthesized. Bacon-flavored dough pills were produced as described (Walker et al., Toxicol. Appl. Pharmacol. 260:65-69, 2012) for oral administration of Gly-MCA (0.25 mg Gly-MCA/pill, dose of 10 mg/kg). Mice were trained to eat the dough pills prior to the study. For the prevention of obesity, insulin resistance and NAFLD, male wild-type (WT) C57BL/6N mice, 6- to 8-weeks-old, were fed a high-fat diet (Bio-Serv, Frenchtown, N.J.; 60 kcal % fat) from the age of 6 weeks and were orally administered with vehicle (control pills) or Gly-MCA (0.25 mg/pill/day, dose 10 mg/kg). C57BL/6N mice fed a high-fat diet for 12 weeks were administered (0.25 mg Gly-MCA/pill, dose of 5 mg/kg). Leptin-deficient db/db mice, 6- to 8-weeks-old, fed a chow diet, were administered Gly-MCA (0.25 mg/pill/day, 10 mg/kg). Mice were housed individually in their home cages. Cumulative food intake and TEEbal were measured for 1 week in vehicle and Gly-MCA-treated mice from 6 to 7 weeks of HFD. TEEbal was measured as previously described (Ravussin et al., Int. J. Obesity 37:399-403, 2013).
Hematoxylin and eosin (H&E) staining were performed on formalin fixed paraffin embedded sections using a standard protocol. Oil red 0 staining was performed on frozen liver sections using a standard protocol. At least three discontinuous liver sections were evaluated for each mouse.
Hepatic lipids were extracted using a 2:1 chloroform-methanol solution. Liver triglycerides were measured with a triglyceride colorimetric assay kit, according to the manufacturer's recommendation (Bioassay Systems, Hayward, Calif.).

SREBP1c-CIDEA pathway = assay: liver mRNA and protein expression (qPCR, western blot); conditions: for protein levels of mature nuclear SREBP1 and CIDEA in the liver: HFD 16 weeks
Protocol: The mucosa of intestine was gently scraped and liver was taken and both were flash frozen in liquid nitrogen and stored at −80° C. until RNA was prepared. RNA was extracted from frozen intestine and liver using TRIzol reagent (Invitrogen, Carlsbad, Calif.). cDNA was synthesized from 1 μg total RNA using Superscript II reverse transcriptase (Invitrogen, Carlsbad, Calif.). qPCR primers were designed with qPrimerDepot. Measured mRNA levels were normalized to those of 18S ribosomal RNA and expressed as fold change relative to those of control group.
Liver whole-cell or nuclear extracts were prepared. Membranes were incubated with antibodies against FXR (Santa Cruz Biotechnology, Inc., Santa Cruz, Calif.), SREBP1 (BD Biosciences, San Jose, Calif.), and CIDEA (Abcam, Cambridge, Mass.). The signals obtained were normalized to β-ACTIN (Abcam) for whole cell extract and LAMIN A/C (Santa Cruz) for nuclear extracts.

## CC1(C)CC(O)CC(C)(C)N1[O] [tempol, 4-hydroxy-2,2,6,6,-tetramethylpiperidine-1-oxyl]
[1]; Fxr^fl/fl mice
  weight gain less than that of vehicle treated mice: approximately 65%
[1]; Fxr^ΔIE mice
  weight gain vs vehicle: insignificant difference in weight gain
[2]
  bile salt hydrolase (BSH) enzymatic activity in the feces: significant downregulation
HFD-induced NAFLD model; Fxr^fl/fl mice, HFD
  liver weights: significantly reduced
HFD-induced NAFLD model; Fxr^fl/fl mice, HFD 14 weeks (antibiotic) and 16 weeks (tempol)
  hepatic lipid droplets (liver histology): decreased hepatic lipid droplets
HFD-induced NAFLD model; Fxr^ΔIE mice, HFD
  hepatic lipid (liver histology): no changes in hepatic lipid
  hepatic triglyceride content (hepatic steatosis): did not alleviate hepatic steatosis
HFD-induced NAFLD model; HFD
  liver weights: decreased
HFD-induced NAFLD model; HFD, relative to vehicle
  hepatic triglyceride (TG) contents decreased to: ~35%
HFD-induced NAFLD model; tempol: HFD 16 weeks, antibiotic: HFD 7 weeks
  hepatic lipid droplets (liver histology): significant reduction in hepatic lipid droplets
SREBP1c-CIDEA pathway; Fxr^ΔIE mice treated with tempol
  protein levels of mature nuclear SREBP1 and CIDEA in the liver: no decrease
SREBP1c-CIDEA pathway; HFD 7 weeks
  inflammation-related genes (Tlr2, Tlr4, Tlr9, Tnfα) mRNA in liver: comparable
SREBP1c-CIDEA pathway; tempol-treated Fxr^fl/fl mice
  protein levels of mature nuclear SREBP1 and CIDEA in the liver: significantly reduced
